Measurements published in patent publication US6143740A, “Heregulin antagonists and methods for their use” (Georgetown University, priority 1999, dated 2000).

Assays:
[1] = test system: HRG-induced tyrosine phosphorylation (MDA-453 cells); test: Inhibition of HRG-induced phosphorylation, dose dependence in MDA-453 cells; assay type: cell-based; settings: 10 nM HRG
Method: (§1) The ability of compounds of the invention to block HRG-induced phosphorylation was tested by co-incubation with 10 nM HRG (maximal induction).

[2] = test system: EGF-mediated signaling pathway (MDA-468 cells); test: Specificity: incubation with EGF in EGFR overexpressing cell line MDA-468; assay type: cell-based
32D/erbB-4 cells [3] = test: HRG-dependent cell proliferation, 32D/erbB-4; assay type: cell-based, murine
Description: (§2) Inhibition of HRG-dependent cell proliferation--Since most human cancer cells express more than one of the erbB receptors and different heterodimerization might alter the binding affinity and/or internalization, it is difficult to define the exact correlation of the receptor expression and the antagonist activity of the small molecules. To overcome this difficulty, a 32D cell (murine, hematopoietic) model system, in which the 32D cells were transfected with erbB4 receptor, can be utilized. […] 32t cells transfected with erbB-4 will proliferate in the presence of either HRG or IL-3. With this 32D cell model system, compounds of the invention can be tested for their antagonist activity and specificity in both HRG-dependent and HRG-independent growth.

32D/erbB-4 cells [4] = test: IL-3 stimulated (HRG-independent) growth, 32D/erbB-4; assay type: cell-based, murine
Description: as §2

32D cells = test: IL-3 stimulated (HRG-independent) growth, 32D; assay type: cell-based, murine
Description: as §2

HRG receptor = test: Structure-activity relationship of rifamycin analogues as heregulin antagonists (FIGS. 6 and 7); assay type: cell-based; settings: substituent at C9 position
Method: Replacement of residues 177 and 178 by an acetyl group decreases the binding affinity of HRG to its receptor by more than 50-fold (Barbacci et al., J. Bio. Chem. 1995; 270(16)9585-9).
The structure-activity relationships of rifamycin analogues also indicates the importance of this region (FIGS. 6 and 7).
Inhibition of receptor binding--To investigate whether a compound can inhibit binding between HRG and its receptors, binding assays were performed using ^125 I labeled EGF domain of HRG-β1 (HED-β1). The binding affinity of iodine-labeled HED-β1 in T47D or MDA-453 cells was pre-determined. Unlabeled compounds were co-incubatedwith the radiolabeled ligand for 2 hours at 4° C., and the cells were washed 3 times with an ice-cold binding buffer. The labeled cells were lysed, and counted in a gamma-counter. Compounds that displaced more than 50% of labeled HED-β1 from the HRG-receptors were then re-examined in a dose-dependent manner.
as §1

SMILES	inhibition of HRG-induced phosphorylation [1]	effect on EGF-mediated signaling pathway [2]	HRG-dependent cell growth inhibition (32D/erbB-4 cells [3])	inhibition of IL-3 stimulated growth (32D/erbB-4 cells [4])	inhibition of IL-3 stimulated growth (32D cells)	antagonist activity (structure-activity, FIGS. 6 and 7) (HRG receptor)
COC1C=COC2(C)Oc3c(C)c(O)c4c(O)c(c(C=NN5C(C)CN(Cc6cccc(O)c6)CC5C)c(O)c4c3C2=O)NC(=O)C(C)=CC=CC(C)C(O)C(C)C(O)C(C)C(OC(C)=O)C1C (stereo not drawn) [Compound A1]	dose-dependent inhibition	no or very little effect	inhibit only the HRG-dependent cell growth	not IL-3 stimulated growth	not IL-3 stimulated growth	–
COC1C=COC2(C)Oc3c(C)c(O)c4c(O)c(c(C=NN(C)C56CC7CC(CC(C7)C5)C6)c(O)c4c3C2=O)NC(=O)C(C)=CC=CC(C)C(O)C(C)C(O)C(C)C(OC(C)=O)C1C (stereo not drawn) [Compound A3]	dose-dependent inhibition	no or very little effect	–	–	–	fairly good activities
COC1C=COC2(C)Oc3c(C)c(O)c4c(O)c(c(C=NN5CCCCCCCCCCCCCCCCC5)c(O)c4c3C2=O)NC(=O)C(C)=CC=CC(C)C(O)C(C)C(O)C(C)C(OC(C)=O)C1C (stereo not drawn) [Compound A4]	–	–	–	–	–	fairly good activities
